# Where two headings read alike, the source gives them in different places.
# Assays:
# BRD4 BD1 = molecular target: T1, BRD4 BD1 (Homo sapiens, UniProt O60885); assay: AlphaScreen binding assay, BRD4 Bromodomain 1
# T1 construct: made in house
# Outline: (§1)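 Compound dilution series were mixed with His-tagged BRD4 bromodomain and biotinylated tetra-acetylated H4 (1-21) peptide at pH 7.3 (BD1 and peptide at 50 nM, BD2 and peptide at 100 nM). Donor and acceptor beads were then added, and plates were equilibrated at least 1 h before reading. IC50 values were fitted with a four-parameter logistic model.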
# MV4-11 cells = assay: Oncology cell growth assay (3-day proliferation, CellTiter-Glo); format: cell-based; conditions: Homo sapiens, AML cell line MV4-11, 72 hours, compounds grouped by IC50 range, read-out: MV4-11 IC50 (inhibition of proliferation, gIC50)
# Outline: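 MV4-11 AML cells (RPMI 1640, 10% FBS) plated at 3000 cells/well and exposed 72 h to compound at final 10 to 0.0045 μM (3-fold series). Viability read by CellTiter-Glo luminescence; gIC50 from four-parameter logistic fit between DMSO control and no-cell background.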
# BRD4 BD2 = molecular target: T2, BRD4 BD2 (Homo sapiens, UniProt O60885); assay: AlphaScreen binding assay, BRD4 Bromodomain 2
# T2 construct: made in house
# Outline: as §1
Structure (SMILES),IC50 (BRD4 BD1) [nM],"IC50 (MV4-11 cells; MV4-11, 72 h) [nM]",IC50 (BRD4 BD2) [nM],IC50 (MV4-11 cells) [nM]
CC(=O)N1c2ccc(-c3ccc(S(=O)(=O)CCN)cc3)cc2N(C(=O)OC(C)C)C[C@@H]1C [Example I-477],100 to 1000,100 to 500,< 50,
"CNC(=O)Cn1cc(-c2ccc3c(c2)N(C(=O)OC(C)C)C[C@H](C)N3C(C)=O)cn1 [Example I-134, (S)-isopropyl 4-acetyl-3-methyl-7-(1-(2-(methylamino)-2-oxoethyl)-1H-pyrazol-4-yl)-3,4-dihydroquinoxaline-1(2H)-carboxylate]",100 to 1000,> 500,50 to 500,
CC(=O)N1c2ccc(-c3cnn(C4CNC4)c3)cc2N(C(=O)Oc2ccc(F)cc2)C[C@@H]1C [Example I-1150],100 to 1000,,< 50,100 to 500
CC(=O)N1c2ccc(-c3ccc(S(=O)(=O)C4CC4)cc3)cc2N(C(=O)OC2CCCCC2)C[C@@H]1C [Example I-1215],100 to 1000,100 to 500,50 to 500,
CC(=O)N1c2ccc(-c3c[nH]nc3C)cc2N(C(=O)OC(C)C)CC1C (stereo not drawn) [Example I-337],100 to 1000,> 500,> 500,
CC(=O)N1c2ccc(-c3cc(Cl)cc(S(C)(=O)=O)c3)cc2N(C(=O)OC2CCCCC2)C[C@@H]1C [Example I-1247],1000 to 10000,> 500,> 500,
CC(=O)N1c2ccc(-c3cnn(CC(=O)N4CCCCC4)c3)cc2N(C(=O)OC(C)C)C[C@@H]1C [Example I-599],100 to 1000,100 to 500,< 50,
"CC(=O)N1c2ccc(-c3cnn(CCO)c3)cc2N(c2nn(C)c3ccc(F)cc23)C[C@@H]1C [Example I-189, 1-[(2S)-4-(5-fluoro-1-methyl-1H-indazol-3-yl)-6-[1-(2-hydroxyethyl)-1H-pyrazol-4-yl]-2-methyl-1,2,3,4-tetrahydroquinoxalin-1-yl]ethan-1-one]",1000 to 10000,100 to 500,50 to 500,
CC(=O)N1c2ccc(-c3cnn(C(C)(C)CO)c3)cc2N(C(=O)OC(C)C)C[C@@H]1C [Example I-1275],100 to 1000,100 to 500,< 50,
CCOC(=O)N1C[C@H](C)N(C(C)=O)c2ccc(-c3cccc(NS(C)(=O)=O)c3)cc21 [Example I-1045],1000 to 10000,> 500,50 to 500,
CC(=O)N1c2ccc(-c3ccc(N4CCCC4=O)cc3)cc2N(C(=O)C2CCC2)C[C@@H]1C [Example I-1132],1000 to 10000,100 to 500,50 to 500,
"CC(=O)N1c2ccc(-c3cnn(CCO)c3)cc2N(C(=O)OCCC(F)(F)F)C[C@@H]1C [Example I-81, (S)-3,3,3-trifluoropropyl 4-acetyl-7-(1-(2-hydroxyethyl)-1H-pyrazol-4-yl)-3-methyl-3,4-dihydroquinoxaline-1(2H)-carboxylate]",1000 to 10000,100 to 500,> 500,
COC(=O)N1c2ccc(-c3ccc(C(=O)N4CC[C@@H](O)C4)cc3)cc2N(C(=O)OC(C)C)C[C@@H]1C [Example I-577],100 to 1000,> 500,50 to 500,
"COCCn1cc(-c2ccc3c(c2)N(C(=O)c2ccco2)C[C@H](C)N3C(C)=O)cn1 [Example I-18, (S)-1-(4-(furan-2-carbonyl)-6-(1-(2-methoxyethyl)-1H-pyrazol-4-yl)-2-methyl-3,4-dihydroquinoxalin-1(2H)-yl)ethanone]",100 to 1000,100 to 500,< 50,
COC(=O)N1c2ccc(-c3cnn(C(C)(C)CO)c3)cc2N(C(=O)Oc2ccc(F)cc2)C[C@@H]1C [Example I-1024],100 to 1000,100 to 500,< 50,
"CC(=O)N1c2ccc(-c3cnn(C4CCOCC4)c3)cc2N(C(=O)OC2CC(F)(F)C2)C[C@@H]1C [Example I-4, (S)-3,3-difluorocyclobutyl 4-acetyl-3-methyl-7-(1-(tetrahydro-2H-pyran-4-yl)-1H-pyrazol-4-yl)-3,4-dihydroquinoxaline-1(2H)-carboxylate]",100 to 1000,100 to 500,50 to 500,
CNS(=O)(=O)c1ccc(-c2ccc3c(c2)N(C(=O)c2ccco2)C[C@H](C)N3C(C)=O)cc1 [Example I-875],100 to 1000,100 to 500,< 50,
"CC(=O)N1c2ccc(-c3cnn(CC4(F)COC4)c3)cc2N(C(=O)OC(C)C)C[C@@H]1C [Example I-133, (S)-isopropyl 4-acetyl-7-(1-((3-fluorooxetan-3-yl)methyl)-1H-pyrazol-4-yl)-3-methyl-3,4-dihydroquinoxaline-1(2H)-carboxylate]",100 to 1000,100 to 500,50 to 500,
CC(=O)N1c2ccc(-c3ccc4c(cnn4C)c3)cc2N(C(=O)c2ccco2)C[C@@H]1C [Example I-852],100 to 1000,100 to 500,50 to 500,
CC(C)OC(=O)N1C[C@H](C)N(C(=O)C2CC2)c2ccc(-c3cnn(CCN4CCOCC4)c3)cc21 [Example I-312],100 to 1000,100 to 500,50 to 500,
CC(=O)N1c2ccc(-c3cnn(C4CC4)c3)cc2N(C(=O)Oc2cccc(F)c2)C[C@@H]1C [Example I-502],100 to 1000,100 to 500,50 to 500,

Structure (SMILES),IC50 (BRD4 BD1) [nM],"IC50 (MV4-11 cells; MV4-11, 72 h) [nM]",IC50 (BRD4 BD2) [nM],IC50 (MV4-11 cells) [nM]
CC(=O)N1c2ccc(-c3cnn(CCO)c3)cc2N(C(=O)N(C)C(C)C)C[C@@H]1C [Example I-1211],> 10000,> 500,50 to 500,
CC(=O)N1c2ccc(-c3cnn(C4CC4)c3)cc2N(C(=O)Oc2ccccn2)C[C@@H]1C [Example I-1322],100 to 1000,< 100,< 50,
CC(=O)N1c2ccc(-c3cnn(CC(=O)N(C)C4CC4)c3)cc2N(C(=O)OC(C)C)C[C@@H]1C [Example I-596],100 to 1000,100 to 500,< 50,
CC(=O)N1c2ccc(-c3cccc(S(N)(=O)=O)c3)cc2N(C(=O)OC2CCOCC2)C[C@@H]1C [Example I-1220],100 to 1000,100 to 500,50 to 500,
COC(=O)Nc1ccc(-c2ccc3c(c2)N(C(=O)c2ccco2)C[C@H](C)N3C(C)=O)cc1 [Example I-414],1000 to 10000,100 to 500,< 50,
CC(=O)N1c2ccc(-c3cccc(S(=O)(=O)NCCO)c3)cc2N(C(=O)OC(C)C)C[C@@H]1C [Example I-1111],100 to 1000,100 to 500,50 to 500,
CC(=O)N1c2ccc(-c3cnn(Cc4c(C)noc4C)c3)cc2N(C(=O)OC(C)C)C[C@@H]1C [Example I-602],100 to 1000,100 to 500,< 50,
CC(=O)N1c2ccc(-c3ccccc3)cc2N(C(=O)c2ccco2)C[C@@H]1C [Example I-804],1000 to 10000,100 to 500,< 50,
COC(=O)N1c2ccc(-c3cnn(Cc4c(C)noc4C)c3)cc2N(C(=O)OC(C)C)C[C@@H]1C [Example I-634],100 to 1000,100 to 500,50 to 500,
CC(=O)N1c2ccc(-c3ccc(NS(=O)(=O)C4CC4)cc3)cc2N(C(=O)C2CC2)C[C@@H]1C [Example I-351],100 to 1000,100 to 500,50 to 500,
CC(=O)N1c2ccc(-c3cnn(Cc4cncs4)c3)cc2N(C(=O)C2CC2)C[C@@H]1C [Example I-686],100 to 1000,100 to 500,50 to 500,
CC(=O)N1c2ccc(-c3cnn(C4CS(=O)(=O)C4)c3)cc2N(C(=O)OC2CCCCC2)C[C@@H]1C [Example I-1308],100 to 1000,100 to 500,< 50,
CCN(CC)S(=O)(=O)c1cc(-c2ccc3c(c2)N(C(=O)OC2CCCCC2)C[C@H](C)N3C(C)=O)ccc1OC [Example I-1257],100 to 1000,100 to 500,50 to 500,
CC(=O)N1c2ccc(-c3cnn(C4CCOCC4)c3)cc2N(C(=O)OC2CCCCC2)C[C@@H]1C [Example I-1301],< 100,< 100,< 50,
CNC(=O)CN(C)C(=O)c1ccc(-c2ccc3c(c2)N(C(=O)OC(C)C)C[C@H](C)N3C(=O)C2CC2)cc1 [Example I-562],100 to 1000,100 to 500,50 to 500,
CC(=O)N1c2ccc(-c3ccc(F)c(S(C)(=O)=O)c3)cc2N(C(=O)OC2CCOCC2)C[C@@H]1C [Example I-1250],1000 to 10000,> 500,> 500,
CC(=O)N1c2ccc(-c3cnn(C(C)(C)CO)c3)cc2N(C(=O)Oc2cccnc2)C[C@@H]1C [Example I-1284],100 to 1000,100 to 500,50 to 500,
COC(=O)N1c2ccc(-c3cnn(CCC(N)=O)c3)cc2N(C(=O)OC(C)C)C[C@@H]1C [Example I-638],100 to 1000,> 500,50 to 500,
CC(=O)N1c2ccc(-c3ccc4c(c3)CCCN4S(C)(=O)=O)cc2N(C(=O)C2CC2)C[C@@H]1C [Example I-1157],100 to 1000,100 to 500,< 50,
"CNC(=O)N1c2ncc(-c3cnn(C4CC4)c3)cc2N(C(=O)OC(C)C)C[C@@H]1C [Example I-194, (S)-isopropyl 7-(1-cyclopropyl-1H-pyrazol-4-yl)-3-methyl-4-(methylcarbamoyl)-3,4-dihydropyrido[2,3-b]pyrazine-1(2H)-carboxylate]",1000 to 10000,,50 to 500,> 500
